Experimental data published in PubChem BioAssay AID1919008 (Molecular Pharmacology Branch, DTP, NCI, 2023).

Tested on: DMS-114 complex spheroids with HUVEC/MSC, growth % test/control
Test: Anticancer human tumor DMS-114 cell line growth inhibition [AhR];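 further: spheroids exposed to agents for 7 days before readout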;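 on viability, T/C: 100% = DMSO vehicle control wells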
Conditions: for IC50: curve of first compound; for viability, T/C: stronger effect = lower value
Text: Multicellular complex tumor spheroid response to aryl hydrocarbon receptor antagonists in combination with a variety of drugs and investigational agents in selected tumor cell lines
The current study was undertaken to assess response to aryl hydrocarbon receptor antagonists in combination with standard-of-care drugs and investigational agents in solid tumor complex spheroid models. Complex spheroids include a stromal component modeled by human endothelial cells (HUVEC) and fibroblasts modeled by human mesenchymal stem cells (MSCs). The concentration ranges selected for each drug and investigational agent were based upon clinically achievable concentrations if the clinical Cmax of the agent was known.
Compounds. The drugs and investigational agents: BAY 2416964 (NSC825713), GNF351 (NSC835774), CH-223191 (NSC835775), CPI-455 (NSC825282), aza-TdCyd (NSC777586), decitabine (NSC127716), belinostat (NSC758774), entinostat (NSC756642), pevonedistat (NSC761192), tazemetostat (NSC777109), talazoparib (NSC765396), olaparib (NSC753686), selinexor (NSC780203), nedisertib (M3814, NSC802822), bortezomib (NSC756655), venetoclax (NSC766270), doxorubicin (NSC123127), elimusertib (BAY189344, NSC800525), ceralasertib (AZD6738, NSC777638), TAK-243 (NSC785004), alisertib (NSC759677), etoposide (NSC141540), topotecan (NSC609699), eribulin (NSC707389), gemcitabine (NSC613327), carboplatin (NSC241240), cisplatin (NSC119875), and SN-38 (NSC673596) were obtained from the National Cancer Institute (NCI) Developmental Therapeutics Program Chemical Repository (32). The FDA-approved anticancer drug set is available from the Developmental Therapeutics Program at https://dtp.cancer.gov/organization/dscb/obtaining/available plates.htm. […] The stock solutions were prepared in dimethyl sulfoxide (DMSO, Sigma-Aldrich, St. Louis, MO, cat. D2650), except for the platinum compounds which were prepared in saline (Quality Biological, Gaithersburg, MD, cat. 114-055-101), at 800-fold the tested concentration and stored at -70 degrees C prior to their use. All drugs and investigational agents were tested over a range starting from a high concentration at or near the clinical Cmax and decreasing in half-log increments. If the clinical Cmax for an agent had not been determined, the highest concentration tested was 10 microM (Table 1).
Cell Culture. All cells were maintained in an incubator at 37 degrees C and 5% CO2 with 95% humidity. The PDC lines were cultured according to standard operating procedures established by the NCI PDMR (https://pdmr.cancer.gov). Briefly, all PDCs were thawed and cultured in Matrigel-coated flasks prepared with a working solution of 1X Ham's F-12 nutrient mix, without supplementation (Invitrogen, Waltham, MA, cat. 11765054), 100 U/mL penicillin-streptomycin (Invitrogen, cat. 15140122), and 2.5% Matrigel (Corning Inc., Corning, NY, cat. 354248) for the first three passages. All PDCs were cultured in complete DMEM/F-12 media containing advanced DMEM/F-12 (Invitrogen, cat. 12634028), 4.9% defined fetal bovine serum, heat inactivated (HyClone Laboratories Inc., Logan, UT, cat. SH30070.03HI), 389 ng/mL hydrocortisone (Sigma-Aldrich, cat. H4001), 9.7 ng/mL human EGF recombinant protein (Invitrogen, cat. PHG0313), 23.4 microg/mL adenine (Sigma-Aldrich, cat. A2786), 97.3 U/mL penicillin-streptomycin (Invitrogen, cat. 15140122), 1.9 mM L-glutamine (Invitrogen, cat. 25030081), and 9.7 microM Y-27632 dihydrochloride (Tocris Bioscience, Bristol, United Kingdom, cat. 1254). The PDCs were cultured in complete DMEM/F12 media without 10 microM Y-27632 dihydrochloride for at least two passages prior to the screen. The established cell lines NCI-H1341 and […] were cultured in DMEM/F-12, HEPES (Invitrogen, cat. 11330032), 5% defined fetal bovine serum (HyClone Laboratories Inc., cat. SH30070.03), ITS premix universal culture supplement [insulin (5 microg/mL), transferrin (5 microg/mL), and selenious acid (5 ng/mL)] […]

[1] = second compound 0.1 µM, first compound 0.0316 µM
[2] = second compound 0.1 µM, first compound 0.1 µM
[3] = second compound 0.316 µM, first compound 0.0316 µM
[4] = second compound 0.316 µM, first compound 0.1 µM
[5] = second compound 1 µM, first compound 0.0316 µM
[6] = second compound 1 µM, first compound 0.1 µM
[7] = second compound 3.16 µM, first compound 0.0316 µM
[8] = second compound 3.16 µM, first compound 0.1 µM
[9] = second compound 10 µM, first compound 0.0316 µM
[10] = second compound 10 µM, first compound 0.1 µM
[11] = second compound 0.1 µM, first compound 0.316 µM
[12] = second compound 0.1 µM, first compound 1 µM
[13] = second compound 0.1 µM, first compound 3.16 µM
[14] = second compound 0.1 µM, first compound 10 µM
[15] = second compound 0.316 µM, first compound 0.316 µM
[16] = second compound 0.316 µM, first compound 1 µM
[17] = second compound 0.316 µM, first compound 3.16 µM
[18] = second compound 0.316 µM, first compound 10 µM
[19] = second compound 1 µM, first compound 0.316 µM
[20] = second compound 1 µM, first compound 1 µM
[21] = second compound 1 µM, first compound 3.16 µM
[22] = second compound 1 µM, first compound 10 µM
[23] = second compound 3.16 µM, first compound 0.316 µM
[24] = second compound 3.16 µM, first compound 1 µM
[25] = second compound 3.16 µM, first compound 3.16 µM
[26] = second compound 3.16 µM, first compound 10 µM
[27] = second compound 10 µM, first compound 0.316 µM
[28] = second compound 10 µM, first compound 1 µM
[29] = second compound 10 µM, first compound 3.16 µM
[30] = second compound 10 µM, first compound 10 µM

SMILES	IC50 (second compound 0.1 µM)	IC50 (second compound 0.316 µM)	IC50 (second compound 1 µM)	IC50 (second compound 3.16 µM)	IC50 (second compound 10 µM)	viability, T/C [1]	viability, T/C [2]	viability, T/C [3]	viability, T/C [4]	viability, T/C [5]	viability, T/C [6]	viability, T/C [7]	viability, T/C [8]	viability, T/C [9]	viability, T/C [10]	viability, T/C [11]	viability, T/C [12]	viability, T/C [13]	viability, T/C [14]	viability, T/C [15]	also measured
CC[C@@]1(O)C(=O)OCc2c1cc1n(c2=O)Cc2cc3c(CN(C)C)c(O)ccc3nc2-1 + CC(CO)NC(=O)c1cc(-c2ccc(Cl)cc2)nn(-c2cnn(C)c2)c1=O	34.6 nM	32.4 nM	37.2 nM	32.7 nM	32.8 nM	51.9%	27.2%	46%	26.9%	54.6%	21.9%	51%	26.4%	48.1%	25.4%	–	–	–	–	–	viability, T/C (second compound 0.1 µM, first compound 0.000316 µM): 101%; viability, T/C (second compound 0.1 µM, first compound 0.001 µM): 103%; viability, T/C (second compound 0.1 µM, first compound 0.00316 µM): 95.7%; viability, T/C (second compound 0.1 µM, first compound 0.01 µM): 95.2%; viability, T/C (second compound 0.316 µM, first compound 0.000316 µM): 105%; viability, T/C (second compound 0.316 µM, first compound 0.001 µM): 99%; viability, T/C (second compound 0.316 µM, first compound 0.00316 µM): 83.2%; viability, T/C (second compound 0.316 µM, first compound 0.01 µM): 81.3%; viability, T/C (second compound 1 µM, first compound 0.000316 µM): 88.9%; viability, T/C (second compound 1 µM, first compound 0.001 µM): 95.2%; viability, T/C (second compound 1 µM, first compound 0.00316 µM): 90%; viability, T/C (second compound 1 µM, first compound 0.01 µM): 85.5%; viability, T/C (second compound 3.16 µM, first compound 0.000316 µM): 104%; viability, T/C (second compound 3.16 µM, first compound 0.001 µM): 100%; viability, T/C (second compound 3.16 µM, first compound 0.00316 µM): 92.1%; viability, T/C (second compound 3.16 µM, first compound 0.01 µM): 74.2%; viability, T/C (second compound 10 µM, first compound 0.000316 µM): 116%; viability, T/C (second compound 10 µM, first compound 0.001 µM): 105%; viability, T/C (second compound 10 µM, first compound 0.00316 µM): 95.1%; viability, T/C (second compound 10 µM, first compound 0.01 µM): 92.7%
COc1cc(C2c3cc4c(cc3C(OC3OC5COC(C)OC5C(O)C3O)C3COC(=O)C23)OCO4)cc(OC)c1O (stereo not given) + CC(CO)NC(=O)c1cc(-c2ccc(Cl)cc2)nn(-c2cnn(C)c2)c1=O	572 nM	469 nM	448 nM	431 nM	489 nM	87.4%	88.4%	95.9%	88.3%	97.7%	89.9%	90.4%	94.8%	94.4%	97.7%	64.3%	34.2%	25.8%	13.2%	55%	viability, T/C [16]: 34.3%; viability, T/C [17]: 25.8%; viability, T/C [18]: 13.4%; viability, T/C [19]: 56.3%; viability, T/C [20]: 31.4%; viability, T/C [21]: 22.7%; viability, T/C [22]: 14%; viability, T/C [23]: 52.8%; viability, T/C [24]: 32.9%; viability, T/C [25]: 23.6%; viability, T/C [26]: 12%; viability, T/C [27]: 58%; viability, T/C [28]: 32.9%; viability, T/C [29]: 22.2%; viability, T/C [30]: 12.7%
Nc1ccn(C2OC(CO)C(O)C2(F)F)c(=O)n1 (stereo not given) + CC(CO)NC(=O)c1cc(-c2ccc(Cl)cc2)nn(-c2cnn(C)c2)c1=O	< 31.6 nM	< 31.6 nM	< 31.6 nM	< 31.6 nM	< 31.6 nM	12.1%	11.5%	11.8%	11.9%	12.6%	14.1%	10.6%	13.3%	11.6%	11.8%	11.5%	11.7%	11.6%	10.9%	13%	viability, T/C [16]: 10.9%; viability, T/C [17]: 11.6%; viability, T/C [18]: 12.8%; viability, T/C [19]: 14.4%; viability, T/C [20]: 12.3%; viability, T/C [21]: 10.6%; viability, T/C [22]: 12.6%; viability, T/C [23]: 12.9%; viability, T/C [24]: 10.6%; viability, T/C [25]: 11.2%; viability, T/C [26]: 11.1%; viability, T/C [27]: 12.7%; viability, T/C [28]: 11.3%; viability, T/C [29]: 12.7%; viability, T/C [30]: 11.9%
